Results taken from publication PMC10813298, “Evidence of Guanidines Potential against Leishmania (Viannia) braziliensis: Exploring In Vitro Effectiveness, Toxicities and of Innate Immunity Response Effects” (Biomolecules, 2023).

Columns and labels:
[1] = Cytotoxicity against RAW 264.7 macrophages (MTT); type: cell-based, murine; details: mouse, RAW 264.7 macrophages, pH 7.2, RAW 264.7 cells
Protocol: Murine macrophage cell line RAW 264.7 was used in this study. The cells were cultured in 75 cm^2 cell culture flasks (Corning Glass Workers, New York, NY, USA) using DMEM medium with a pH of 7.2, supplemented with 10% FBS and 1% antibiotic solution (containing 100 U/mL penicillin and 100 μg/mL streptomycin). The cells were maintained in an incubator at a temperature of 37 °C with 5% CO2. The spikes were performed after the cells reached complete confluence, characterized by the formation of a monolayer of cells around 48 h to 72 h after packaging.
In this study, we utilized the RAW 264.7 macrophages line (obtained from ATCC: code TIB-71™),human embryonic kidney cell line HEK-293 (obtained from ATCC: code CRL-1573™)and two human cancer cell cultures: the colon carcinoma cell line CaCo-2 and the adenocarcinomic human alveolar basal epithelial cell A549 (also obtained from ATCC: codesHTB-37™ and CCL-185™).These cell lines were cultured in Dulbecco’s modified Eagle medium (DMEM) from Gibco by Life Technologies (LifeTech Austria, Vienna, Austria). The growth medium was supplemented with 5% fetal bovine serum (FBS) from Gibco by Life Technologies and 1% penicillin-streptomycin obtained from Sigma-Aldrich (Vienna, Austria). The cells were maintained at 37 °C with 5% CO2 in a humidified incubator, and regular checks for mycoplasma contamination were carried out.
For experimental purposes, the cells were seeded into 96-well plates at a density of 2 × 10^4 cells/mL, with each well containing 100 µL of the cell suspension. The cells were allowed to adhere for 24 h. Subsequently, they were exposed to 100 µL of the test compounds, which were diluted in DMEM, with concentrations ranging from 2 to 600 µmol/L. The stock solutions of these compounds were prepared in water with 10% (v/v) dimethyl sulfoxide (DMSO) and stored at 4 °C.
To assess cell viability after 72 h of exposure to the compounds, we employed a 3-(4,5-dimethylthiazol-2-yl)-2,5-diphenyltetrazolium bromide (MTT)-based vitality assay kit (EZ4U, Biomedica, Vienna, Austria). Briefly, we added 20 µL of the EZ4U assay solution to each well and incubated the plates in the dark for 2 h. Subsequently, we measured the absorbance using a microplate reader at 450 nm, with 620 nm as a reference to reduce unspecific background values. For reliability, all experiments were conducted three times with triplicate samples.
The different mean concentrations for promastigotes (IC50) and macrophages (CC50) were calculated using nonlinear regression. For comparisons between groups, ANOVA analysis of variance was performed followed by Tukey’s test in a statistical program, taking the p-value < 0.05 as the maximum level of statistical significance.

[2] = test system: right atrium; experiment: Chronotropic effect on isolated right atrium; design: species or system guinea pig; details: for effect on heart rate (chronotropic): isolated guinea pig heart muscle preparation, up to 100 µmol/L
Protocol: Guinea pigs of either sex weighing between 250 or 380 g were utilized in this study. The animals were housed in a controlled environment in an air-conditioned room, maintaining a temperature of 22 to 24 °C and a relative humidity of 50% to 60%. A 12 h light–dark cycle was maintained.
On the day of the experiments, the animals were euthanized via cervical dislocation. The heart, aorta, pulmonary artery, and ileum were surgically removed and immersed in Krebs–Henseleit solution, with the following composition: NaCl 144.9 mM, KCl 4.73 mM, CaCl2 3.2 mM, MgSO4 1.18 mM, NaHCO3 24.9 mM, KH2PO4 1.18 mM, and glucose 10 mM, with the pH maintained at 7.2–7.4. This solution was continuously aerated with a mixture of 95% O2 and 5% CO2.
Papillary muscles were isolated from the right ventricle of the heart and meticulously cleared of Purkinje fibers to prevent spontaneous activity. To ensure adequate oxygen supply, only muscles with a diameter less than 0.87 mm were used. The right atrium was also dissected for assessment of chronotropic activity. Both the aorta and pulmonary artery were cleaned and cut into 5 mm rings, while the ileum was sectioned into pieces measuring 1 to 2 cm.
One end of the dissected tissues was securely tied with silver wire for attachment to a tissue holder, while the other end was connected to a force transducer (Transbridge™, 4-Channel Transducer Amplifier, World Precision Instruments, Sarasota, FL, USA). For contractile measurements, the terminal ileum was stimulated with 60 mM KCl, and the pulmonary artery and aorta rings were exposed to a 90 mM KCl solution. Papillary muscles were electrically stimulated using an Anapulse Stimulator Model 301-T and an Isolation Unit Model 305-1 (WPI, Hamden, CT, USA) with rectangular pulses of 3 ms duration at a frequency of 1 Hz. The amplitude of the stimulation pulse was maintained at 10% above the threshold level. To optimize contractility, a constant resting tension was applied throughout the experiment: 3.9 mN for papillary muscle, 4.9 mN for terminal ileum, 10.4 mN for the right atrium, and 19.6 mN for aorta and pulmonary artery rings.
Following a 30 min control period, different concentrations of test compounds were cumulatively added to the bath solution every 45 min until a stable effect was achieved. The responses were recorded using a chart recorder (BD 112 Dual Channel, Kipp &Zonen, PO Box 507, 2624 BC, Delft, Holland) for subsequent evaluation. Stock concentrations of the test compounds were prepared using DMSO. To account for any potential DMSO effect, control experiments were conducted with the solvent alone, and the observed effects were subtracted from the responses elicited by the test compounds.

Compound: CC(C)(C)c1ccc(N/C(=N\C(=O)c2ccccc2)NCc2ccccc2)cc1 [LQOF-G6, (Z)-N-benzoyl-N-benzyl-N-(4-tert-butylphenyl)guanidine]
- CC50 at 72 h [1]: 154 ± 2.3 µM

Compound: O=C(/N=C(/NCc1ccccc1)Nc1ccc(Br)cc1)c1ccccc1 [LQOF-G2, (Z)-N-benzoyl-N-benzyl-N-(4-bromophenyl)guanidine]
- CC50 at 72 h [1]: 164 ± 2.9 µM
- EC50 ([2]; Cavia porcellus, isolated guinea pig right atrium, 3 to 100 µmol/L, read-out: EC50 reduction of heart rate activity): 69 µM

Compound: O=C(/N=C(/NCc1ccccc1)Nc1ccc([N+](=O)[O-])cc1)c1ccccc1 [LQOF-G1, (Z)-N-benzoyl-N-benzyl-N-(4-nitrophenyl)guanidine]
- CC50 at 72 h [1]: 147 ± 2 µM
- effect on heart rate (chronotropic) [2]: slight decrease in heart rate

Compound: O=C(/N=C(/NCc1ccc(Cl)cc1Cl)Nc1ccc(Br)cc1)c1ccccc1 [LQOF-G32, (Z)-N-benzoyl-N-(2,4-di-chlorobenzyl)-N-(4-bromophenyl)guanidine]
- CC50 at 72 h [1]: 275.9 ± 2.4 µM
- effect on heart rate (chronotropic) [2]: slight decrease in heart rate

Compound: O=C(/N=C(/NCc1ccccc1)Nc1ccc(I)cc1)c1ccccc1 [LQOF-G7, (Z)-N-benzoyl-N-benzyl-N-(4-iodophenyl)guanidine]
- CC50 at 72 h [1]: 183 ± 3.1 µM
- effect on heart rate (chronotropic) [2]: slight decrease in heart rate
